PubChem BioAssay (NCI)
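1) Cells in 96-well plates. 2) Compound, 48 h, 5 concentrations. 3) Linear interpolation between surrounding doses. 4) Unreached endpoint = highest concentration. GI50 marks 50% less growth. TGI denotes the concentration required for complete inhibition of growth.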

Experiments:
Assay in all cases: DTP human tumour cell line panel, 48 h
HCT-15 colon = test system: HCT-15 colon
IGROV1 ovarian = test system: IGROV1 ovarian
K-562 leukemia = test system: K-562 leukemia
NCI-H460 lung = test system: NCI-H460 lung
OVCAR-3 ovarian = test system: OVCAR-3 ovarian
OVCAR-8 ovarian = test system: OVCAR-8 ovarian
SK-MEL-28 melanoma = test system: SK-MEL-28 melanoma
HS 578T breast = test system: HS 578T breast
MCF7 breast = test system: MCF7 breast
T-47D breast = test system: T-47D breast

SMILES	TGI (HCT-15 colon) [µM]	TGI (IGROV1 ovarian) [µM]	TGI (K-562 leukemia) [µM]	TGI (NCI-H460 lung) [µM]	TGI (OVCAR-3 ovarian) [µM]	TGI (OVCAR-8 ovarian) [µM]	TGI (SK-MEL-28 melanoma) [µM]	TGI (HS 578T breast) [µM]	TGI (MCF7 breast) [µM]	TGI (T-47D breast) [µM]	GI50 (HCT-15 colon) [nM]	GI50 (NCI-H460 lung) [µM]	GI50 (SK-MEL-28 melanoma) [nM]	GI50 (T-47D breast) [nM]	GI50 (IGROV1 ovarian) [nM]	GI50 (K-562 leukemia) [nM]	GI50 (OVCAR-3 ovarian) [nM]	GI50 (OVCAR-8 ovarian) [nM]	GI50 (MCF7 breast) [µM]	GI50 (HS 578T breast) [µM]
C[C@]12CC(C=O)C(=O)C(O)=C1CC[C@@H]1C2CC[C@@]2(C)C1CC[C@]2(C)O (some centres not stated)	60.8	47.5	> 100	87	64.7	89.9	68.1	–	–	–	–	–	–	–	–	–	–	–	–	–
C=CC(=O)Nc1ccccc1CC(c1c[nH]c2ccccc12)c1c[nH]c2ccccc12	38.7	36.6	49.2	–	32.6	33.6	32.1	–	–	–	–	–	–	–	–	–	–	–	–	–
COc1c(-c2ccc3c(c2)OCO3)oc2cc(O)cc(O)c2c1=O	> 100	> 100	> 100	> 100	–	> 100	> 100	53.3	75.3	64.7	–	–	–	–	–	–	–	–	–	–
CC(C)N1C(C)[C@@H](c2ccccc2)O[P@@]1(=O)CC1=CCCCC1 (some centres not stated)	> 100	> 100	> 100	> 100	> 100	> 100	> 100	–	–	–	–	–	–	–	–	–	–	–	–	–
C=C(C)C1CCC2=CC(CC3(C)OC3C3=CC(C(=O)OC)=C(C1)O3)OC2=O (configuration not stated)	> 100	> 100	> 100	> 100	> 100	> 100	> 100	–	> 100	> 100	–	–	–	–	–	–	–	–	–	–
CN(CCCN1C(=O)c2cccc3cc([N+](=O)[O-])cc(c23)C1=O)CCN(C)CCCN1C(=O)c2cccc3cc([N+](=O)[O-])cc(c23)C1=O	> 39.3	> 39.3	> 39.3	> 39.3	> 39.3	> 39.3	> 39.3	–	–	–	–	–	–	–	–	–	–	–	–	–
CCOC(=O)/C(C#N)=C\Sc1ccccc1	–	23.2	> 100	83.1	39.2	27.3	42.8	–	–	–	–	–	–	–	–	–	–	–	–	–
COC(=O)c1ccc(C(=O)OC)c2nc3cc(Cl)ccc3nc12	> 100	> 100	> 100	> 100	> 100	> 100	> 100	–	–	–	–	–	–	–	–	–	–	–	–	–
COc1ccc2c(CCCc3ccc(Cl)cc3Cl)c3[n+](cc2c1OC)CCc1cc2c(cc1-3)OCO2	3.29	–	–	1.32	–	–	1.83	–	–	1.84	1720	0.343	492	325	–	–	–	–	–	–
CCC[CH2][Sn]([CH2]CCC)([O]C(=O)c1cc(F)ccc1F)[O]C(=O)c1cc(F)ccc1F	2.44	3.18	1.35	3.56	2.61	2.65	2.32	–	–	–	1180	1.85	1090	–	1630	294	1330	1340	–	–
C(=C\c1ccncc1)/c1ccncc1	> 100	> 100	> 100	> 100	> 100	> 100	> 100	–	> 100	> 100	> 100000	> 100	> 100000	> 100000	> 100000	> 100000	> 100000	> 100000	> 100	–
O=[N+]([O-])c1cccc(S(=O)(=O)N/N=C/c2cc(I)cc([N+](=O)[O-])c2O)c1	65.5	> 100	58.4	> 100	43.9	63.2	87.9	–	–	–	–	–	–	–	–	–	–	–	–	–
CCOC(=O)C(=O)Nc1c(C)cccc1C(C)(C)C	> 100	> 100	> 100	> 100	> 100	> 100	> 100	–	–	–	–	–	–	–	–	–	–	–	–	–
CCCS(=O)c1nc(COC(=O)NC)c(COC(=O)NC)n1C (configuration not stated)	> 100	> 100	> 100	> 100	> 100	> 100	> 100	–	> 100	–	–	–	–	–	–	–	–	–	–	–
CN(C)CC1C(=O)O[C@H]2[C@H]1CC/C(COC(=O)NCc1ccc(Cn3c(=O)sn(CCCI)c3=O)cc1)=C\CC[C@@]1(C)O[C@@H]21 (some centres not stated)	2.13	1.97	6.01	17.2	1.45	2.72	1.82	17.7	–	–	965	7.77	920	–	922	1020	775	1160	–	5.75
Cc1ccc(C2[C@H]3C(=O)N(c4ccc(Cc5ccc(N6C(=O)[C@@H]7ON(c8ccccc8)C(c8ccc(C)cc8)[C@@H]7C6=O)cc5)cc4)C(=O)[C@H]3ON2c2ccccc2)cc1 (some centres not stated)	> 100	> 100	> 100	> 100	> 100	–	> 100	–	–	–	–	–	–	–	–	–	–	–	–	–
O=[N+]([O-])c1ccc(C2SCc3nc4ccccc4n32)cc1 (configuration not stated)	–	60.2	> 100	> 100	–	> 100	> 100	–	–	–	–	–	–	–	–	–	–	–	–	–
O=C1NC2C3CC(OCc4ccccc4)(OCc4ccccc4)C2OC3O1 (configuration not stated)	> 50	> 50	> 50	–	> 50	–	> 50	–	–	–	–	–	–	–	–	–	–	–	–	–
COc1cc2c3c(n([C@@H]4CCOC4)c(=O)c2cc1OC)-c1cc2c(cc1C3=O)OCO2	–	> 100	> 100	–	–	> 100	–	> 100	> 100	–	–	–	–	–	53.7	16.6	–	13.2	< 0.01	> 100
C=C1C(=O)O[C@H]2[C@H]1CC/C(COC(=O)CCCCCCCC(=O)OC/C1=C/CC[C@@]3(C)O[C@H]3[C@H]3OC(=O)C(=C)[C@@H]3CC1)=C\CC[C@@]1(C)O[C@@H]21	4.16	5.92	10.8	9.1	2.79	8.44	11.4	27.3	–	8.26	1750	3.06	2940	2300	2220	927	1320	2750	–	3.84
COc1cc2c3cc1Oc1c(OC)c(OC)cc4c1[C@@H](Cc1ccc(O)c(c1)Oc1ccc(cc1)C[C@@H]3N(C)CC2)N(C)CC4	27.2	36.9	33.5	75.6	29.5	31.7	29.5	–	–	–	–	–	–	–	–	–	–	–	–	–
